In data set [1] the target is T1, human liver cytosolic AOX1 (Homo sapiens, UniProt Q06278).
T1 sequence (Q06278 1-1338): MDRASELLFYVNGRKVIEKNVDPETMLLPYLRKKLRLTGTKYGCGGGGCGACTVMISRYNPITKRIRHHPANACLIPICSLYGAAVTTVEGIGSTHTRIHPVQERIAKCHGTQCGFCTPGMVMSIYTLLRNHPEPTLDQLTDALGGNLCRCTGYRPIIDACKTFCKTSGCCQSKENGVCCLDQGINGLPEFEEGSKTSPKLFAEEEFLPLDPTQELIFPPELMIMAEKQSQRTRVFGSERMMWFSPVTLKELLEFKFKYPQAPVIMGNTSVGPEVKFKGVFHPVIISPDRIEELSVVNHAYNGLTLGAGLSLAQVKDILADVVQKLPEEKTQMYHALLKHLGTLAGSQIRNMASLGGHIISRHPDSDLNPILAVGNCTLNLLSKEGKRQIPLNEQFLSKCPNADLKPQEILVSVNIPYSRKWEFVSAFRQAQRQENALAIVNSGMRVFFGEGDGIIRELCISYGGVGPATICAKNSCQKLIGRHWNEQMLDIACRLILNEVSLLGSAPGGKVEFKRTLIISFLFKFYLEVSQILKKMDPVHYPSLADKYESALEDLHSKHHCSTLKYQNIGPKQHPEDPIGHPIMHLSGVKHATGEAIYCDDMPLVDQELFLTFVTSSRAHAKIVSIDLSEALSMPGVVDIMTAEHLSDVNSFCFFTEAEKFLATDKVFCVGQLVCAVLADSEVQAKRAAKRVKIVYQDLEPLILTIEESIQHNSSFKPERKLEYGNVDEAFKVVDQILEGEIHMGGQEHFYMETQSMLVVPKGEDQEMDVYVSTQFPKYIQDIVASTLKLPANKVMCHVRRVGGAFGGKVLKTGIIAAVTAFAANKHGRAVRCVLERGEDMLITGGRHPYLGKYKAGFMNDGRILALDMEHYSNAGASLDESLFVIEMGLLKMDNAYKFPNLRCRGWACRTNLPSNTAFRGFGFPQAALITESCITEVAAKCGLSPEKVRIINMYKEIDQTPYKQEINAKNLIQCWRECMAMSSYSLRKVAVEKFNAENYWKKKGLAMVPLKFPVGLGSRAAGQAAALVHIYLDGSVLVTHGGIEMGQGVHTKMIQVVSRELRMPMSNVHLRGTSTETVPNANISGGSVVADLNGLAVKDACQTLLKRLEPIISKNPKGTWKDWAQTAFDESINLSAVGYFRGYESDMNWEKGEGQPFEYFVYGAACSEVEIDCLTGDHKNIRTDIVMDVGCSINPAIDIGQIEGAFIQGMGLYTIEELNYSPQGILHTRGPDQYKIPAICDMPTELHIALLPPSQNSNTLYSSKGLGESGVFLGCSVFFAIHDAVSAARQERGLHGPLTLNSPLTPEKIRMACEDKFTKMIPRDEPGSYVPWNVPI
The data set is classed as biochemical. On the set-up: Enzymatic reaction was initiated by adding human liver cytosol (100 μg); tissue Corning, Inc. (Gentest brand) 452115; host or cells: human liver cytosol, pool of 150 donors. As to conditions: potassium ferricyanide 2 mM, 0 or 6 min preincubation. As to the method: The residual AOX1 enzyme activity was determined by the carbazeran 4-oxidation assay.
A test chemical at a concentration described above was incubated with human liver cytosol (100 μg protein) at 37 °C for 0 or 6 minutes. […] After 10-minute incubation, an aliquot (50 μL) of the […] (total volume of 200 μL) containing potassium phosphate buffer and carbazeran (15 μM), which yielded a 4-fold dilution of the secondary incubation mixture. The residual AOX1 enzyme activity was determined as described above.

For data set [2], the target named is T1, human liver cytosolic AOX1. Briefly: Enzyme inactivation of human liver cytosolic AOX1-mediated carbazeran 4-oxidation. Conditions: for kinact: human liver cytosol 100 μg, carbazeran 15 μM, 37 °C; for Experimental Log KI: log of KI. The protocol:
Carbazeran 4-oxidation and O^6-benzylguanine 8-oxidation were deployed as AOX1-selective catalytic markers.[27] The assay conditions (amount of cytosolic protein, incubation time, and substrate concentration) for carbazeran 4-oxidation catalyzed by human recombinant AOX1 and human/rat/mouse liver cytosols were optimized previously.[7]^,[25]
Enzymatic reaction was initiated by adding human liver cytosol (100 μg). After the specified preincubation duration, an aliquot (10 μL) of the preincubation mixture was transferred to 190 μL of a prewarmed (for 3 minutes at 37 °C) secondary incubation mixture (total volume of 200 μL) containing potassium phosphate buffer and carbazeran (15 μM) or O^6-benzylguanine (150 μM), which yielded a 20-fold dilution of the primary incubation mixture. The secondary incubation mixture was incubated for 5 minutes at 37 °C before the enzymatic reaction was terminated with 200 μL of ice-cold acetonitrile containing carbazeran-d4 (2.5 nM final concentration; internal standard for 4-oxo-carbazeran) or tolbutamide (25 nM final concentration; internal standard for 8-oxo-O^6-benzylguanine). Each sample was immediately mixed by vortex, placed on ice, centrifuged at 16,000g for 15 minutes at 4 °C and stored at –30 °C until ultra-high performance liquid chromatography–tandem mass spectrometry (UPLC-MS/MS) analysis. For enzyme inactivation assays involving rat and mouse liver cytosol and recombinant AOX1 assays, the experimental conditions were similar to those of human liver cytosol, except that the amount of cytosolic protein was 200 μg (rat) and 150 μg (mouse), respectively, and the incubation time of the secondary incubation mixture was 60 minutes. For the recombinant AOX1 enzyme assay, the amount of enzyme was 100 μg, the incubation time of the secondary incubation mixture was 15 minutes, and the total volume of the primary and secondary incubation mixtures was reduced to 100 μL.
Preliminary experiments were performed to optimize the incubation time and concentration of an inactivator to ensure a log-linear decrease in enzyme activity over time and that the kobs versus inactivator concentration plot reaches a plateau for the determination of the kinact value. The observed first-order rate constant for inactivation (kobs), maximal inactivation rate constant (kinact), half-maximal inactivation concentration (KI), and the time required for half of the enzyme molecules to be inactivated (t1/2) were calculated as described in our previous publication.[28]

[3] abbreviates: human liver cytosol, 10 μM (raloxifene 0.02 μM), 30-minute preincubation.
[4] abbreviates: human liver cytosol, carbazeran 4-oxidation.
[5] abbreviates: human liver cytosol, inactivator 1.5 μM alone, 6-minute preincubation.
Where [6] appears, read: read-out: KI,u, unbound, KI,u = fu × KI, fu at 10 μM in human liver cytosol.
Setting [7] is: half-maximal inactivation concentration, human liver cytosol, carbazeran 4-oxidation.

Several values for one entry are separate records, joined by “and”; a condition that tells them apart may be missing. Identical values can stand only once. Like-named read-outs stand apart in the source and are kept apart here.

As to `C#Cc1cccc(Nc2ncnc3cc(OCCOC)c(OCCO)cc23)c1` [O-Desmethylerlotinib, O-desmethylerlotinib], the “effect of coincubation or postincubation with potassium ferricyanide on AOX1 inactivation” value (from here on “effect of coincubation or postincubation”) in data set [1] was “not increased or decreased”. Besides, the kinact in data set [2] is 1.05 ± 0.06 min^–1. Also, the “decrease in carbazeran 4-oxidation” value in data set [2] (setting [3]) was 99%; in data set [2] (setting [5]), 69% and 79% and 80%. For the same compound, in data set [2] (setting [4]), the “Inactivation t1/2” value is recorded as 0.66 ± 0.04 min. Moreover, the kinact/KI in data set [2] (setting [4]) is listed as 0.21 ± 0.04∗∗∗ min^–1μM^–1. For the same compound, in data set [2] (human liver cytosol), the “Experimental Log KI” value is on record as 0.71 ± 0.11∗ μM. In data set [2] (setting [6]), the Ki was 4.41 ± 1.04 µM. Besides, the KI (inactivation) in data set [2] (read-out: KI, half-maximal inactivation concentration, human liver cytosol, carbazeran 4-oxidation) came to 5.23 ± 1.24 µM.

As to `C#Cc1cccc(Nc2nc(C)nc3cc(OCCOC)c(OCCOC)cc23)c1` [2-Methylerlotinib, 2-methylerlotinib], the “effect of coincubation or postincubation” value in data set [1] was “not increased or decreased”. In addition, in data set [2] (Table 1 values), the “KI, fold higher compared with erlotinib” value came out at 1.5 fold; the “kinact, decrease compared with erlotinib” value stood at 26%; the “kinact/KI ratio, decrease compared with erlotinib” value is 51%; the “t1/2, fold longer compared with erlotinib” value (“t1/2, fold longer” for short) is recorded as 1.3 fold. Further, the Ki in data set [2] (setting [7]) came out at 4 ± 0.27 µM. In addition, in data set [2], the kinact is 0.84 ± 0.10∗∗ min^–1. Moreover, in data set [2] (setting [4]), the “Inactivation t1/2” value was 0.83 ± 0.11 min and the kinact/KI is given as 0.21 ± 0.01∗∗∗ min^–1μM^–1. Moreover, the Ki in data set [2] (setting [6]) was found to be 2.04 ± 0.14 µM.

Regarding `C#Cc1cc(Nc2ncnc3cc(OCCOC)c(OCCOC)cc23)ccc1C` [4′-Methylerlotinib, 4′-methylerlotinib], the “effect of coincubation or postincubation” value in data set [1] is given as “not increased or decreased”. Further, in data set [2] (Table 1 values), the “KI, decrease compared with erlotinib” value was 62%; the “kinact, decrease compared with erlotinib” value was determined as 88%; the “kinact/KI ratio, decrease compared with erlotinib” value was 70%; the “t1/2, fold longer” value stood at 8.5 fold. This compound showed a Ki in data set [2] (setting [7]) of 1.03 ± 0.27 µM. In addition, in data set [2], the kinact is on record as 0.14 ± 0.03∗∗∗ min^–1. For the same compound, in data set [2] (setting [4]), the “Inactivation t1/2” value was 5.29 ± 1.19∗∗∗ min and the kinact/KI is 0.13 ± 0.02∗∗∗ min^–1μM^–1. Moreover, the Ki in data set [2] (setting [6]) amounted to 0.75 ± 0.2 µM.

In the case of `C#Cc1cccc(Nc2ncnc3cc(OCCO)c(OCCO)cc23)c1` [O-Didesmethylerlotinib, O-didesmethylerlotinib], the “effect of coincubation or postincubation” value in data set [1] is given as “not increased or decreased”. The results for the Ki in data set [2] (setting [7]) and in data set [2] (setting [6]) were 1.98 ± 0.2 µM and 1.67 ± 0.17 µM, respectively. Also, the kinact in data set [2] is recorded as 1.00 ± 0.04 min^–1. Further, the “decrease in carbazeran 4-oxidation” value in data set [2] (setting [3]) was 99%; in data set [2] (setting [5]) it was 90% and 89% and 92%. Moreover, the “Inactivation t1/2” value in data set [2] (setting [4]) is on record as 0.70 ± 0.03 min. The kinact/KI in data set [2] (setting [4]) is recorded as 0.50 ± 0.03∗∗ min^–1μM^–1. In data set [2] (human liver cytosol), the “Experimental Log KI” value was 0.30 ± 0.04 μM.

Turning to `C=Cc1cccc(Nc2ncnc3cc(OCCOC)c(OCCOC)cc23)c1` [3-Vinylerlotinib, 3-vinylerlotinib], the “effect of coincubation or postincubation” value in data set [1] was “not increased or decreased”. For the same compound, in data set [2] (Table 1 values), the “KI, fold higher compared with erlotinib” value is listed as ~11 fold; the “kinact, fold lower compared with erlotinib” value is reported as “approximately 3.5 fold”; the “kinact/KI ratio, fold lower compared with erlotinib” value was ~43 fold; the “t1/2, fold longer” value is reported as “approximately 3.5 fold”. The compound also showed a Ki in data set [2] (setting [7]) of 30.6 ± 9.6 µM. The kinact in data set [2] was 0.33 ± 0.07∗∗∗ min^–1. Besides, the “decrease in carbazeran 4-oxidation” value in data set [2] (setting [3]) amounted to 84%. For the same compound, the “decrease in carbazeran 4-oxidation” value in data set [2] (human liver cytosol, 6 minutes of preincubation (data not shown)) was “did not decrease”. Further, in data set [2] (setting [4]), the “Inactivation t1/2” value is listed as 2.14 ± 0.47∗ min. For the same compound, the “Experimental Log KI” value in data set [2] (human liver cytosol) is 1.5 ± 0.15∗∗∗ μM. Besides, in data set [2] (setting [6]), the Ki was determined as 23.9 ± 7.53 µM.

In the case of `C#Cc1cccc(Nc2ncnc3cc(OCCOC)c(OCCOC)cc23)c1` [Erlotinib], the “effect of coincubation or postincubation” value in data set [1] is given as “not increased or decreased”. Besides, the “Inactivation t1/2” value in data set [2] (setting [4]) turned out to be 0.62 ± 0.09 min.
